{
  "source": "patent US20220000811A1",
  "about": "“COMPOSITION FOR PROMOTING HAIR GROWTH COMPRISING A GUANINE DERIVATIVE” (KOREA RESEARCH INSTITUTE OF BIOSCIENCE AND BIOTECHNOLOGY, priority 2019, published 2022)",
  "key": {"auricle": {"tested_on": "auricle", "experiment": "Auricle punch analysis (auricular tissue repair)", "type": "in vivo, mouse", "conditions": "2 mm ear punch holes, daily topical application, indicated concentrations", "method": "For the auricular tissue repair analysis, three holes with a diameter of 2 mm were drilled in each ear using a punching instrument (Fine Science Tools, British Columbia, Canada). IM at the indicated concentration was applied daily with a sterile cotton swab. The hole area was measured with digital calipers (VWR, Radnor, Pa., USA)."}, "[1]": {"tested_on": "K15, β-catenin, Ki67, Shh, PDK, PDH", "experiment": "Histochemical (immunostaining) analysis of skin markers", "type": "in vivo, mouse", "method": "During the hair telogen phase, the hair on the dorsal skin of 7-week-old C57BL/6 mice (Dae Han BioLink, Chungbuk, Republic of Korea) was depilated using an animal clipper and wax (Veet, Oxy Reckitt Benckiser, Seoul, Republic of Korea). From the next day, 200 μL of placebo (control), 1% IM, 1% minoxidil, or 1% metformin was applied daily to the depilated area using a sterile cotton swab. Images of each animal were captured daily, and the degree of darkness of the color on dorsal skin was quantified in the same area (1.6 cm×3 cm) using the Image J program. The mice were sacrificed, and skin tissues on days 0, 7, 14, and 20 were obtained. Half of the tissues were used for RNA isolation, and the other half were fixed with 4% paraformaldehyde overnight for histochemical analysis. The tissues fixed in Example 1.1. were immersed in 30% sucrose, and then embedded in an OCT compound (Sakura Finetek USA Inc, Torrance, Calif., USA). Frozen fragments were obtained using a cryostat sectioning device (Leica, Wetzlar, Germany) and stained using hematoxylin (Sigma) and eosin (Sigma) (H&E), or each of the antibodies shown in Table 1 below. Immunohistochemical analysis was performed, and fluorescence images were taken with an Olympus microscope (Olympus)"}, "[2]": {"tested_on": "HK2, LDHA, NDUS3, ATP5B, Wnt1a, Lef-1, Gli-1, versican", "experiment": "Expression of genes related to metabolism and hair regeneration in skin tissue", "type": "in vivo, mouse", "method": "(§1) During the hair telogen phase, the hair on the dorsal skin of 7-week-old C57BL/6 mice (Dae Han BioLink, Chungbuk, Republic of Korea) was depilated using an animal clipper and wax (Veet, Oxy Reckitt Benckiser, Seoul, Republic of Korea). From the next day, 200 μL of placebo (control), 1% IM, 1% minoxidil, or 1% metformin was applied daily to the depilated area using a sterile cotton swab. Images of each animal were captured daily, and the degree of darkness of the color on dorsal skin was quantified in the same area (1.6 cm×3 cm) using the Image J program. The mice were sacrificed, and skin tissues on days 0, 7, 14, and 20 were obtained. Half of the tissues were used for RNA isolation, and the other half were fixed with 4% paraformaldehyde overnight for histochemical analysis. The level of expression of genes related to metabolism and hair regeneration was analyzed through the skin tissue of each mouse group."}, "[3]": {"tested_on": "K15/β-catenin, Ki67/Shh, K15/PDK, Ki67/PDH populations", "experiment": "FACS analysis of single skin cells", "type": "in vivo, mouse", "method": "as §1, with “After the mice were perfused with PBS” for “The level of expression of genes related”, “remove blood,” for “metabolism and hair regeneration was analyzed through”, “was harvested and cut into small pieces. The tissue was digested with trypsin (Thermo Fisher Scientific) at 37° C. for 150 minutes, then filtered through a 75 μm nylon mesh, followed by filtering through a 30 μm mesh (BD Biosciences). Single cells were fixed, permeabilized, and blocked according to the immunostaining protocol. The cells were stained with specific antibodies (Table 1 above) and analyzed with BD Accuri™ C6 (BD Biosciences)” for “of each mouse group.”"}, "[4]": {"tested_on": "human foreskin fibroblast (HFFs)", "experiment": "Reprogramming into iPSCs (OSKM) in human foreskin fibroblasts, AP staining", "type": "cell-based", "method": "After 28 days, AP staining was performed (FIG. 3a), and the number of AP^+ colonies was quantified (FIG. 3b)."}, "C57BL/6 mice": {"tested_on": "C57BL/6 mice", "experiment": "Side effects observed during hair regeneration experiment", "type": "in vivo, mouse", "conditions": "topical treatment during the experiment", "method": "as §1, with “analysis.” for “analysis. The level of expression of genes related to metabolism and hair regeneration was analyzed through the skin tissue of each mouse group.”"}, "[5]": {"tested_on": "mouse embryonic fibroblasts (MEFs)", "experiment": "Reprogramming into iPSCs (OSKM) in mouse embryonic fibroblasts, AP staining", "type": "cell-based", "conditions": "MEFs; for enhancing reprogramming efficiency: 14 days", "method": "During reprogramming into iPSCs by introducing OSKM reprogramming factor into mouse embryonic fibroblasts (MEFs), rotenone, the guanidine derivatives of the present invention, and phenformin were treated at the indicated concentrations. After 14 days, alkaline phosphatase (AP) staining was performed (FIG. 2A), and the number of AP^+ colonies was quantified (FIG. 2b). […] In the subsequent experiment, additional efficacy was evaluated using only the three compounds showing the effective reprogramming-enhancing effect."}},
  "data": [
    {"molecule": "Cc1ccccc1CCNC(=N)NC(=N)N", "note": "[IM176OUT05, N-1-(2-methyl)phenethylbiguanide]", "values": [
      {"measurement": "wound area of the auricle", "setting": "auricle", "value": "reduced the wound area of the auricle in a dose-dependent manner"},
      {"measurement": "Ki67-positive proliferating cells", "setting": "[1]; day 7", "value": "identified"},
      {"measurement": "PDH expression in Ki67-positive proliferating cells", "setting": "[1]; day 7", "value": "clearly confirmed"},
      {"measurement": "PDK expression in K15-positive stem cells", "setting": "[1]; day 7", "value": "detected"},
      {"measurement": "expression of δ-catenin", "setting": "[1]; day 7", "value": "increased"},
      {"measurement": "keratin 15 (K15) expression in follicle protrusion region compared to control or minoxidil", "setting": "[1]; day 7", "value": "strongly expressed"},
      {"measurement": "K15/PDH and Ki67/PDK expressions", "setting": "[1]; day 20", "value": "independently detected"},
      {"measurement": "Sonic hedgehog (Shh) detection", "setting": "[1]; day 20", "value": "clearly detected"},
      {"measurement": "expression of stemness-related genes (Wnt1a, Lef-1, Gli-1, and versican)", "setting": "[2]; day 7, skin", "value": "significantly upregulated"},
      {"measurement": "expression of glycolysis-related enzymes (HK2 and LDHA)", "setting": "[2]; day 7, skin tissue", "value": "significantly induced"},
      {"measurement": "stemness-related genes compared to control", "setting": "[2]; day 20, skin", "value": "significantly induced"},
      {"measurement": "expression of OXPHOS-related enzymes (NDUS3 and ATP5B) compared to control", "setting": "[2]; day 20, skin tissue", "value": "increased"},
      {"measurement": "expression of glycolysis-related enzymes (HK2 and LDHA) compared to control", "setting": "[2]; day 20, skin tissue", "value": "significantly increased"},
      {"measurement": "K15+/PDK+ population in single skin cells", "setting": "[3]; day 7, FACS", "value": 5.9, "unit": "%"},
      {"measurement": "K15+/β-catenin+ population in single skin cells", "setting": "[3]; day 7, FACS", "value": 11.7, "unit": "%"},
      {"measurement": "Ki67+/PDH+ population", "setting": "[3]; day 7, FACS", "value": 13.7, "unit": "%"},
      {"measurement": "increase of K15+/β-catenin+ population compared to control", "setting": "[3]; day 7, FACS", "value": 3.7},
      {"measurement": "increase of glycolytic stem cell population (K15+/PDK+) compared to control", "setting": "[3]; day 7, FACS", "value": "at least 6.6 times"},
      {"measurement": "Ki67+/Shh+ population in single skin cells", "setting": "[3]; day 20, FACS", "value": 36.7, "unit": "%"},
      {"measurement": "PDK+ cell population and Ki67+ cell population", "setting": "[3]; day 20, FACS", "value": "increased"},
      {"measurement": "increase of Ki67+/Shh+ population compared to control", "setting": "[3]; day 20, FACS", "value": 2.7, "unit": "times"},
      {"measurement": "separated populations of PDH+ cells and K15+ cells", "setting": "[3]; day 20, FACS", "value": "increased"},
      {"measurement": "enhancing reprogramming efficiency", "setting": "[4]; 10 nM, 100 nM, and 500 nM, 28 days", "value": "≥ 2.4", "unit": "times"},
      {"measurement": "concentration with the most excellent reprogramming efficacy", "setting": "[4]; OSKM, after 28 days", "value": 10, "unit": "nM"},
      {"measurement": "side effects, including skin problems", "setting": "C57BL/6 mice", "value": "No side effects"},
      {"measurement": "enhancing reprogramming efficiency", "setting": "[5]; 10 nM", "value": 16.8, "unit": "times"},
      {"measurement": "enhancing reprogramming efficiency", "setting": "[5]; 20 nM", "value": 13.9, "unit": "times"},
      {"measurement": "enhancing reprogramming efficiency", "setting": "[5]; 50 nM", "value": 13.7, "unit": "times"},
      {"measurement": "effect on reprogramming, number of AP+ colonies", "setting": "[5]; OSKM, after 14 days, indicated concentrations", "value": "increased"}
    ]}
  ]
}
